Some test systems named below: 786-0 renal; MDA-MB-231 breast; HS 578T breast; T-47D breast; PC-3 prostate; MDA-N; NCI/ADR-RES ovarian; DLD-1 colon; HOP-18 NSCLC; DMS 114 small cell lung; DMS 273 small cell lung; MDA-MB-435; BT-549 breast; RXF-631 renal.
Common to all, as to assay: NCI-60 cell line screen, 48 h

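Growth conditions: 96-well plates. Treatment: test compound, 48 hours, 5 concentrations. Analysis: linear interpolation between bracketing concentrations; unreached endpoints set to highest concentration. GI50 = concentration required for 50% inhibition of growth. TGI: concentration producing complete growth inhibition.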

Consider `O=C1CSC(=S)N1`, for which the TGI in the experiment with 786-0 renal, with MDA-MB-231 breast, with HS 578T breast, in the experiment with T-47D breast, with PC-3 prostate and in the experiment with MDA-N was more than 100 µM each time. Besides, the TGI in the experiment on NCI/ADR-RES ovarian was more than 100 µM.
Regarding `Cc1ccc2c(c1)C(=O)N(N(C)C)CC(=O)N2`, the TGI in the experiment with DLD-1 colon, in the experiment on HOP-18 NSCLC, in the experiment with DMS 114 small cell lung and with DMS 273 small cell lung was more than 100 µM each time.
Take `Fc1ccc(C2CC(c3cccc(Nc4ccncc4)c3)=NN2c2ccc(Cl)cc2)cc1` (centres undefined): the GI50 with MDA-MB-231 breast is 1.51 µM; in the experiment on MDA-MB-435, 1.58 µM; in the experiment on HS 578T breast, 1.74 µM; in the experiment with PC-3 prostate, 1.63 µM; with BT-549 breast, 2.04 µM; in the experiment on NCI/ADR-RES ovarian, 1.82 µM. The TGI with MDA-MB-231 breast is 2.86 µM; in the experiment on MDA-MB-435 it was 2.95 µM; in the experiment on HS 578T breast, 3.63 µM; in the experiment on PC-3 prostate it was 3.19 µM; in the experiment with BT-549 breast, 4.26 µM; in the experiment on NCI/ADR-RES ovarian, 3.48 µM.
`CC(=O)OCC1=C(C(=O)O)N2C(=O)C(NC(=O)CSc3ccncc3)C2SC1` (centres undefined): the TGI in the experiment on 786-0 renal, in the experiment with MDA-MB-231 breast, in the experiment with MDA-MB-435, in the experiment with HS 578T breast, in the experiment with T-47D breast and with PC-3 prostate was more than 100 µM each time. In addition, the TGI in the experiment with BT-549 breast, in the experiment on MDA-N and in the experiment with NCI/ADR-RES ovarian was more than 100 µM throughout.
As for `CC1CCC2(O)C3(C)CC4(O)OC2(C1O)C1(O)C3(O)C(OC(=O)c2ccc[nH]2)C(O)(C(C)C)C41C` (centres undefined), the TGI in the experiment on 786-0 renal, in the experiment with MDA-MB-231 breast, in the experiment on MDA-MB-435, with HS 578T breast, with T-47D breast and in the experiment with PC-3 prostate was more than 100 µM in each case. For the same compound, the TGI in the experiment on BT-549 breast, in the experiment with MDA-N and in the experiment with NCI/ADR-RES ovarian was more than 100 µM in each case.
On to `O=C1Nc2ccccc2C1=Nc1cccc2ncccc12`, for which the TGI was more than 100 µM in the experiment on 786-0 renal; more than 100 µM with MDA-MB-231 breast; 42.3 µM in the experiment with MDA-MB-435; more than 100 µM in the experiment with HS 578T breast; more than 100 µM in the experiment with T-47D breast; more than 100 µM in the experiment on PC-3 prostate. The TGI in the experiment on BT-549 breast, in the experiment with MDA-N and in the experiment on NCI/ADR-RES ovarian was more than 100 µM throughout.
Consider `CCOC(=O)NC(Nc1ncccn1)(C(=O)OCC)C(F)(F)F` (centres undefined), for which the TGI in the experiment on MDA-MB-231 breast, with MDA-MB-435, with HS 578T breast, in the experiment on T-47D breast, in the experiment on PC-3 prostate and in the experiment with BT-549 breast was more than 100 µM throughout. Also, the TGI in the experiment with MDA-N and in the experiment with NCI/ADR-RES ovarian was more than 100 µM in each case.
Turning to `CC(C)(C)[Si](C)(C)OCC1OC(n2cnc3c(N)ncnc32)CC1O` (centres undefined), the TGI with MDA-MB-231 breast, with MDA-MB-435, with HS 578T breast, with T-47D breast, with PC-3 prostate and with BT-549 breast was more than 100 µM in each case. The TGI with MDA-N and with NCI/ADR-RES ovarian was more than 100 µM throughout.
In the case of `c1coc(CNc2ncnc3[nH]ncc23)c1`, the TGI in the experiment with RXF-631 renal, in the experiment on DLD-1 colon, with 786-0 renal, in the experiment on DMS 114 small cell lung and in the experiment with DMS 273 small cell lung was more than 100 µM in each case.
Consider `N#CN=[N+]([O-])c1ccc(C(=O)O)cc1`, for which the TGI in the experiment on MDA-MB-435 worked out at 31.8 µM; in the experiment with HS 578T breast, 61.3 µM; in the experiment with PC-3 prostate, 31.2 µM; in the experiment with BT-549 breast, 31.4 µM; in the experiment on NCI/ADR-RES ovarian, 39.9 µM.
`Cc1cc(C)n(-c2nsc3ccccc23)n1`: the TGI in the experiment on HOP-18 NSCLC, in the experiment with DMS 114 small cell lung and in the experiment with DMS 273 small cell lung was more than 100 µM each time.
For the compound `C/C(N=NS(=O)(=O)c1ccccc1)=C1\C=CC=CN1O`, the TGI in the experiment with RXF-631 renal, with DLD-1 colon, in the experiment with 786-0 renal, in the experiment with HOP-18 NSCLC, in the experiment on DMS 114 small cell lung and in the experiment with DMS 273 small cell lung was more than 100 µM each time.
In the case of `CSc1nc(NC2OCC(O)C(O)C2O)c(N)c(=O)[nH]1` (centres undefined), the TGI in the experiment with DLD-1 colon, with HOP-18 NSCLC, in the experiment with DMS 114 small cell lung, with DMS 273 small cell lung and in the experiment with NCI/ADR-RES ovarian was more than 100 µM in each case.
With `NCCCOc1ccc([N+](=O)[O-])cc1Cl`, the TGI with DLD-1 colon, in the experiment on 786-0 renal, in the experiment with DMS 114 small cell lung and in the experiment on DMS 273 small cell lung was more than 100 µM each time.
Take `O=C1NC2=C(CCCC/C2=N\O)C12CCCCC2`: the TGI in the experiment with DLD-1 colon and in the experiment with DMS 114 small cell lung was more than 100 µM each time.
Turning to `Brc1ccc(C2CC(c3cccc4ccccc34)=Nc3ccccc3S2)cc1` (centres undefined), the TGI in the experiment on DLD-1 colon and in the experiment with DMS 273 small cell lung was more than 100 µM each time.
Regarding `OCCOCCN1CCN(CCCN2c3ccccc3Sc3ccc(C(F)(F)F)cc32)CC1`, the TGI came to 31.3 µM with 786-0 renal; 24 µM in the experiment with MDA-MB-231 breast; 23.8 µM with MDA-MB-435; 38.9 µM in the experiment with HS 578T breast; 2.48 µM in the experiment on T-47D breast; 29.6 µM with PC-3 prostate. In addition, the TGI in the experiment with BT-549 breast is 35.4 µM; in the experiment with MDA-N, 26.1 µM.
For `CCN(CC)CCNc1ccc2nnn3c4ccc(C)cc4c(=O)c1c23`, the TGI in the experiment with RXF-631 renal came out at 18.4 µM; in the experiment with DLD-1 colon, 25.9 µM; in the experiment on 786-0 renal it was 18.6 µM; with DMS 114 small cell lung it was 21.3 µM.
Turning to `COc1ccc2nc3cc(Cl)ccc3c(NCCNC(=O)Cn3c(=O)n(C)c(=O)c4c3nc3c(c(=O)n(C)c(=O)n3C)[n+]4[O-])c2c1`, the TGI in the experiment on 786-0 renal was more than 100 µM; with MDA-MB-231 breast it was more than 100 µM; with MDA-MB-435, more than 69.5 µM; in the experiment with HS 578T breast it was 71.2 µM; in the experiment on T-47D breast it was more than 100 µM; with PC-3 prostate, more than 100 µM. The values for the TGI in the experiment on BT-549 breast, in the experiment with MDA-N and in the experiment with NCI/ADR-RES ovarian were 49.1 µM, more than 100 µM and more than 95.8 µM, respectively.

The record behind these values is PubChem BioAssay (NCI).
